In patent US12383514B2, “Nano-particles of menaquinone and methods of treatment” (Epizon, Inc., priority 2023, dated 2025):

Assays:
[1] = Dissolution testing of MK-7 nanosuspension in FeSSIF (study 1, 500 mL media); type: physicochemical; conditions: FeSSIF pH 5, 37 °C, 0.01 mg/mL drug load
Procedure: MK-7 (menaquinone-7, API) was suspended in an aqueous vehicle containing wetting agent sodium deoxycholat. The API concentration was 4% and the wetting agent concentration was 0.4% w/w. The API particles were milled to a particle size of 155 nm using zirconium milling beads and high shear Beadbeater mixing. The dissolution of the nanosuspension was tested at a concentration of 0.01 mg/mL, in triplicate, in pH 5 Fed State Simulated Intestinal Fluid (FeSSIF).
1. Clean dissolution system with DI water. Prepare FeSSIF: 2. Fill three (3) vessels with 500 mL of FeSSIF media and heat to 37° C. 3. Set up the following dissolution conditions:
4. Vortex suspension x for approximately one minute so that it is uniform. Weigh three (3) aliquots of 0.15 g of the 4% nanosuspension into a tared syringe to give a target 100% dissolution concentration of 0.01 mg/mL. Record weight. 5. Add weighed suspension directly to each vessel. 6. Start at Timer. 7. After five minutes, manually pull up 3 mL from each dissolution vessel in a syringe. 8. Attach a 0.2 μm filter to the syringe. 9. Transfer 2 mL of the dissolution sample back into the vessel. 10. Transfer the final 1 mL of sample to an amber HPLC vial and crimp seal. 11. Repeat Steps #8-11 at 10, 15, 30, 45 and 60 mins. 12. After the 60-minute time-point, mix each vessel for 5 minutes with a high shear mixer. 13. Repeat Step #8-11 and label this sample as ‘infinity’. 14. Run samples on HPLC 10 minutes HPLC method with replicate HPLC standard solutions.

[2] = Dissolution testing of MK-7 nanosuspension in FeSSIF (summary study 2); type: physicochemical; conditions: FeSSIF pH 5, 37 °C, 0.0104 mg/mL
Procedure: MK-7 (menaquinone-7, API) was suspended in an aqueous vehicle containing wetting agent, sodium deoxycholate. The API concentration was 4% and the wetting agent concentration was 0.4% w/w. The API particles were milled to a particle size of 156 nm by use of zirconium milling beads and high shear Beadbeater mixing. The dissolution of the nanosuspension was tested at a concentration of 0.01 mg/mL, in triplicate, in pH 5 FeSSIF.
Clean dissolution system with DI water. Fill 3× vessels with 500 mL of FeSSIF media and heat to 37° C. Set up the following dissolution conditions:
Vortex suspension×1 minute so that it is uniform. Weigh 3×0.15 g portions of nanosuspension into a tared syringe to give a target 100% dissolution concentration of 0.01 mg/mL. Record weight. Add weighed suspension directly to each vessel. Start at Timer.
At 5 mins, manually pull up 3 mL from each vessel in a syringe. Attach a 0.2 μm filter to the syringe. Transfer 2 mL of the aliquot back into the vessel. Transfer the final 1 mL of aliquot to an HPLC vial and crimp seal. Repeat Steps #8-11 at 10, 15, 30, 45 and 60 mins. After the 60-minute time-point, mix each vessel for 5 minutes with a high shear mixer. Repeat Step #8-11 and label this sample as ‘infinity’.
Run samples on HPLC 10-minute HPLC method with replicate HPLC STDs.

PC12 cells = conditions: cited from earlier work
caspase-3 = conditions: concentration of 10 mcmol/L; cited from earlier work
[3] = Infinity (after 5 min high shear mixing)

Molecule: CC(C)=CCC/C(C)=C/CC/C(C)=C/CC/C(C)=C/CC/C(C)=C/CC/C(C)=C/CC/C(C)=C/CC1=C(C)C(=O)c2ccccc2C1=O [API, menaquinone-7]
- % Dissolution (Avg of n = 3) [1, 3]: 97.0%
- % Dissolution (Avg of n = 3) ([1]; timepoint 0 min): 0%
- % Dissolution (Avg of n = 3) ([1]; timepoint 10 min): 96.7%
- % Dissolution (Avg of n = 3) ([1]; timepoint 15 min): 97.3%
- % Dissolution (Avg of n = 3) ([1]; timepoint 30 min): 97.8%
- % Dissolution (Avg of n = 3) ([1]; timepoint 45 min): 97.7%
- % Dissolution (Avg of n = 3) ([1]; timepoint 60 min): 95.7%
- % Dissolution (Avg of n = 3) [2, 3]: 10.1%
- % Dissolution (Avg of n = 3) ([2]; timepoint 0 min): 0.0%
- % Dissolution (Avg of n = 3) ([2]; timepoint 5 min): 4.1%
- % Dissolution (Avg of n = 3) ([2]; timepoint 10 min): 9.1%
- % Dissolution (Avg of n = 3) ([2]; timepoint 15 min): 8.3%
- % Dissolution (Avg of n = 3) ([2]; timepoint 30 min): 16.6%
- % Dissolution (Avg of n = 3) ([2]; timepoint 45 min): 7.9%
- % Dissolution (Avg of n = 3) ([2]; timepoint 60 min): 5.3%

Molecule: vitamin K2
- neuronal death resulting from Aβ(1-42) (PC12 cells; PC12 cells): prevented neuronal death
- apoptosis after exposure to H2O2 or Aβ(1-42) (PC12 cells; cells pretreated with vitamin K2): significantly less apoptosis
- decrease of caspase-3 activity (caspase-3): 2.5 fold
